# Assay results published in patent US12018011B2, “Macrocyclic compounds and compositions, and methods of preparing and using the same” (Kura Oncology, Inc., priority 2021, dated 2024).
# Target: T1, Recombinant human farnesyl transferase (FTase) (Homo sapiens, UniProt P49356)
# T1 construct: purchased Crelux (Martinsried, Germany)
# Assay: FTase fluorescence assay (farnesylation of dansyl-GCVLS peptide)
# Assay type: biochemical
# Conditions: recombinant human FTase 2.5 nM, Dansyl-GCVLS 85 nM, FPP 30 nM, 30° C., 50 minutes
# Text: T24/83 cell line was purchased from the European Collection of Authenticated Cell Cultures (Salisbury, UK). Recombinant human farnesyl transferase (FTase) and geranylgeranyl transferase type-1 (GGTase) were obtained from Crelux (Martinsried, Germany). Dansyl labelled GCVLS peptide was purchased from Bachem (Torrance, CA), and Dansyl labelled GCVLL peptide was purchased from Bio Synthesis (Lewisville, TX). Farnesyl Pyrophosphate (FPP) and Geranylgeranyl pyrophosphate (GGPP) were purchased from Cayman (Ann Arbor, MI).
# Specific biochemical activity of the compounds disclosed herein as FTase inhibitors was determined by measuring the ability of the compounds to block the farnesylation by recombinant FTase of fluorescent (i.e., dansyl-labeled) test substrates derived from the CAAX box of farnesylated proteins, such as the peptide GCVLS.
# The IC50 value of the compounds disclosed herein as inhibitors of Ftase and/or GGTase, was determined by measuring the concentration (provided in nM) necessary to achieve inhibition of enzyme activity by 50% (IC50). […] Compounds having a low IC50 value against FTase, for example an IC50 (FTase)<100 nM, such as an IC50 (FTase)<10 nM, are preferred. Compounds having a low IC50 value against FTase and a high IC50 value against GGTase, for example an IC50 (FTase)<100 nM, such as an IC50 (FTase)<10 nM, and an IC50 (GGTase)>100 nM, are potent and selective inhibitors of FTase, and are particularly preferred.
# The inhibition activities of the compounds disclosed herein against Ftase and GGTase were measured in the respective fluorescence assays as follows:
# For the FTase assay, recombinant human FTase (2.5 nM), Dansyl labelled GCVLS peptide (85 nM), FPP (30 nM) and inhibitor were mixed in assay buffer (50 mM Tris, pH 7.5, 10 mM magnesium chloride, 10 μM zinc chloride, 0.08% CHAPS, 5 mM dithiothreitol) and incubated in a total volume of 20 μL at 30° C. for 50 minutes.
# For both the FTase assay and GGTase assay, fluorescence intensity was detected (excitation at 340 nm and emission at 486 nm) using EnVision (PerkinElmer; Waltham, MA), IC50 determinations were performed using a sigmoidal dose-response model with Xlfit software (IDBS, Inc.; Boston, MA), and tipifarnib was used as a positive control. All the assay plates for each assay passed the QC criteria (S/B, Z factor).
row,Structure (SMILES),IC50 [nM]
1,"[2H]C([2H])([2H])n1c(=O)cc2c3cc(ccc31)[C@H](n1cnc(C)n1)c1ccc(Cl)c(c1)COc1cccc-2c1 [(S)-080, (S)-4^4-chloro-2^1-(methyl-d3)-3-(3-methyl-1H-1,2,4-triazol-1-yl)-2^1,2^2-dihydro-6-oxa-2(4,6)-quinolina-1,4(1,3)-dibenzenacyclohexaphan-2^2-one]",10 to 100
2,"Cn1cncc1[C@@]1(N)c2ccc(C#N)c(c2)COc2cccc(c2)-c2nccc3ccc1cc23 [(S)-86, (S)-3-amino-3-(1-methyl-1H-imidazol-5-yl)-6-oxa-2(1,7)-isoquinolina-1,4(1,3)-dibenzenacyclohexaphane-4^4-carbonitrile]",≤ 10
3,"Cn1cncc1[C@@]1(N)c2ccc(C#N)c(c2)COc2cccc(c2)-c2cc(OC3COC3)nc3ccc1cc23 [(S)-89, (S)-3-amino-3-(1-methyl-1H-imidazol-5-yl)-2^2-(oxetan-3-yloxy)-6-oxa-2(4,6)-quinolina-1,4(1,3)-dibenzenacyclohexaphane-4^4-carbonitrile]",≤ 10
4,"Cc1cn([C@@H]2c3ccc(C#N)c(c3)COc3cccc(c3)-c3cc(C#N)nc4ccc2cc34)cn1 [(S)-90, (S)-3-(4-methyl-1H-imidazol-1-yl)-6-oxa-2(4,6)-quinolina-1,4(1,3)-dibenzenacyclohexaphane-2^2,4^4-dicarbonitrile]",10 to 100
5,"Cc1cncn1[C@@H]1c2ccc(C#N)c(c2)COc2cccc(c2)-c2cc(C#N)nc3ccc1cc23 [(S)-91, (S)-3-(5-methyl-1H-imidazol-1-yl)-6-oxa-2(4,6)-quinolina-1,4(1,3)-dibenzenacyclohexaphane-2^2,4^4-dicarbonitrile]",> 100
6,"Cn1cncc1C1(O)c2cccc(c2)CCc2cccc(c2)-c2cc(=O)[nH]c3ccc1cc23 (stereo not shown) [Compound 1, 3-hydroxy-3-(1-methyl-1H-imidazol-5-yl)-2^1,2^2-dihydro-2(4,6)-quinolina-1,4(1,3)-dibenzenacyclohexaphan-2^2-one]",10 to 100
7,"COc1cc2c3cc(ccc3n1)C(O)(c1cncn1C)c1ccc(C#N)c(c1)CCc1cccc-2c1 (stereo not shown) [Compound 5, 3-hydroxy-2^2-methoxy-3-(1-methyl-1H-imidazol-5-yl)-2(4,6)-quinolina-1,4(1,3)-dibenzenacyclohexaphane-4^4-carbonitrile]",≤ 10
8,"COc1cc2c3cc(ccc3n1)C(O)(c1cncn1C)c1cccc(c1)OCc1cccc-2c1 (stereo not shown) [Compound 10, 2^2-methoxy-3-(1-methyl-1H-imidazol-5-yl)-5-oxa-2(4,6)-quinolina-1,4(1,3)-dibenzenacyclohexaphan-3-ol]",> 100
9,"COc1cc2c3cc(ccc3n1)C(O)(c1cncn1C)c1ccc(Cl)c(c1)OCc1cccc-2c1 (stereo not shown) [Compound 12, 4^4-chloro-2^2-methoxy-3-(1-methyl-1H-imidazol-5-yl)-5-oxa-2(4,6)-quinolina-1,4(1,3)-dibenzenacyclohexaphan-3-ol]",> 100
10,"COc1cc2c3cc(ccc3n1)C(O)(c1cncn1C)c1ccc(C#N)c(c1)OCc1cccc-2c1 (stereo not shown) [Compound 16, 3-hydroxy-2^2-methoxy-3-(1-methyl-1H-imidazol-5-yl)-5-oxa-2(4,6)-quinolina-1,4(1,3)-dibenzenacyclohexaphane-4^4-carbonitrile]",10 to 100
11,"Cn1cncc1C1(O)c2ccc(C#N)c(c2)OCc2cccc(c2)-c2cc(=O)[nH]c3ccc1cc23 (stereo not shown) [Compound 17, 3-hydroxy-3-(1-methyl-1H-imidazol-5-yl)-2^2-oxo-2^1,2^2-dihydro-5-oxa-2(4,6)-quinolina-1,4(1,3)-dibenzenacyclohexaphane-4^4-carbonitrile]",≤ 10
12,"Cn1cnnc1C1(O)c2ccc(Cl)c(c2)OCCc2cccc(c2)-c2cc(=O)[nH]c3ccc1cc23 (stereo not shown) [Compound 31, 4^4-chloro-3-hydroxy-3-(4-methyl-4H-1,2,4-triazol-3-yl)-2^1,2^2-dihydro-5-oxa-2(4,6)-quinolina-1,4(1,3)-dibenzenacycloheptaphan-2^2-one]",10 to 100
13,"[2H]C([2H])([2H])n1c(=O)cc2c3cc(ccc31)C(O)(c1nncn1C)c1ccc(Cl)c(c1)OCCc1cccc-2c1 (stereo not shown) [Compound 32, 4^4-chloro-3-hydroxy-2^1-(methyl-d3)-3-(4-methyl-4H-1,2,4-triazol-3-yl)-2^1,2^2-dihydro-5-oxa-2(4,6)-quinolina-1,4(1,3)-dibenzenacycloheptaphan-2^2-one]",10 to 100
14,"[2H]C([2H])([2H])OC1(c2nncn2C)c2ccc(Cl)c(c2)OCCc2cccc(c2)-c2cc(=O)n(C([2H])([2H])[2H])c3ccc1cc23 (stereo not shown) [Compound 33, 4^4-chloro-3-(methoxy-d3)-2^1-(methyl-d3)-3-(4-methyl-4H-1,2,4-triazol-3-yl)-2^1,2^2-dihydro-5-oxa-2(4,6)-quinolina-1,4(1,3)-dibenzenacycloheptaphan-2^2-one]",10 to 100
15,"Cn1cnnc1C1(O)c2ccc(C#N)c(c2)OCCc2cccc(c2)-c2cc(=O)n(C)c3ccc1cc23 (stereo not shown) [Compound 38, 3-hydroxy-2^1-methyl-3-(4-methyl-4H-1,2,4-triazol-3-yl)-2^2-oxo-2^1,2^2-dihydro-5-oxa-2(4,6)-quinolina-1,4(1,3)-dibenzenacycloheptaphane-4^4-carbonitrile]",≤ 10
16,"CNC1(c2nncn2C)c2ccc(Cl)c(c2)COc2cccc(c2)-c2cc(=O)n(C)c3ccc1cc23 (stereo not shown) [Compound 50, 4^4-chloro-2^1-methyl-3-(4-methyl-4H-1,2,4-triazol-3-yl)-3-(methylamino)-2^1,2^2-dihydro-6-oxa-2(4,6)-quinolina-1,4(1,3)-dibenzenacyclohexaphan-2^2-one]",≤ 10
17,"COc1cc2c3cc(ccc3n1)C(O)(c1cncn1C)c1ccc(C#N)c(c1)COc1cccc-2c1 (stereo not shown) [Compound 53, 3-hydroxy-2^2-methoxy-3-(1-methyl-1H-imidazol-5-yl)-6-oxa-2(4,6)-quinolina-1,4(1,3)-dibenzenacyclohexaphane-4^4-carbonitrile]",≤ 10
18,"Cn1cncc1C1(O)c2ccc(C#N)c(c2)COc2cccc(c2)-c2cc(=O)[nH]c3ccc1cc23 (stereo not shown) [Compound 54, 3-hydroxy-3-(1-methyl-1H-imidazol-5-yl)-2^2-oxo-2^1,2^2-dihydro-6-oxa-2(4,6)-quinolina-1,4(1,3)-dibenzenacyclohexaphane-4^4-carbonitrile]",≤ 10
19,"Cn1cncc1C1(O)c2cccc(c2)CCOc2cccc(c2)-c2cc(=O)n(C)c3ccc1cc23 (stereo not shown) [Compound 63, 3-hydroxy-2^1-methyl-3-(1-methyl-1H-imidazol-5-yl)-2^1,2^2-dihydro-7-oxa-2(4,6)-quinolina-1,4(1,3)-dibenzenacycloheptaphan-2^2-one]",10 to 100
20,"COc1cc2c3cc(ccc3n1)C(O)(c1cncn1C)c1ccc(Cl)c(c1)CCOc1cccc-2c1 (stereo not shown) [Compound 64, 4^4-chloro-2^2-methoxy-3-(1-methyl-1H-imidazol-5-yl)-7-oxa-2(4,6)-quinolina-1,4(1,3)-dibenzenacycloheptaphan-3-ol]",> 100
21,"Cn1cncc1C1(N)c2ccc(C#N)c(c2)COc2cccc(c2)-c2cc(N3CCNCC3)nc3ccc1cc23 (stereo not shown) [Compound 67, 3-amino-3-(1-methyl-1H-imidazol-5-yl)-2^2-(piperazin-1-yl)-6-oxa-2(4,6)-quinolina-1,4(1,3)-dibenzenacyclohexaphane-4^4-carbonitrile]",10 to 100
22,"Cn1cncc1C1(N)c2ccc(C#N)c(c2)COc2cccc(c2)-c2cc(NC3COC3)nc3ccc1cc23 (stereo not shown) [Compound 68, 3-amino-3-(1-methyl-1H-imidazol-5-yl)-2^2-(oxetan-3-ylamino)-6-oxa-2(4,6)-quinolina-1,4(1,3)-dibenzenacyclohexaphane-4^4-carbonitrile]",10 to 100
23,"Cn1cncc1C1(N)c2ccc(Br)c(c2)COc2cccc(c2)-c2cc(Cl)nc3ccc1cc23 (stereo not shown) [Compound 74, 4^4-bromo-2^2-chloro-3-(1-methyl-1H-imidazol-5-yl)-6-oxa-2(4,6)-quinolina-1,4(1,3)-dibenzenacyclohexaphan-3-amine]",10 to 100
24,"Cn1cncc1C1(N)c2ccc(Br)c(c2)COc2cccc(c2)-c2cc(OC3COC3)nc3ccc1cc23 (stereo not shown) [Compound 75, 4^4-bromo-3-(1-methyl-1H-imidazol-5-yl)-2^2-(oxetan-3-yloxy)-6-oxa-2(4,6)-quinolina-1,4(1,3)-dibenzenacyclohexaphan-3-amine]",> 100
25,"Cn1cncc1C1(N)c2ccc(Br)c(c2)COc2cccc(c2)-c2nc(N)nc3ccc1cc23 (stereo not shown) [Compound 82, 4^4-bromo-3-(1-methyl-1H-imidazol-5-yl)-6-oxa-2(4,6)-quinazolina-1,4(1,3)-dibenzenacyclohexaphane-2^2,3-diamine]",≤ 10
